Where a name gives a salt, the structure may show the parent alone. Read-outs that look alike come from different tables or passages of the source.
Columns and labels:
A. baumannii biofilms = experiment: Static bacterial biofilm inhibition assay (crystal violet), A. baumannii; assay type: cell-based, Acinetobacter baumannii; design: inhibition of A. baumannii biofilm development: dose or concentration left out as unconfirmed; conditions: for IC50: read-out: IC50 of biofilm inhibition, A. baumannii
Procedure: (§1) Each 2-AIT conjugate was initially screened at 300 μM for their ability to inhibit P. aeruginosa PAO1 and PA14 biofilms, A. baumannii biofilms and B. bronchiseptica Rb50 biofilms using a crystal violet reporter assay (G. A. O'Toole, R. Kolter, Molecular Microbiology 1998, 2, 295-304). […] This is an order of magnitude increase in activity when compared to DHS (J. J. Richards, R. W. Huigens, T. E. Ballard, A. Basso, J. Cavanagh, C. Melander, Chemical Communications 2008, 14, 1698-1700). […] 6 also dispersed pre-formed A. baumanni biofilms with an EC50 of 400 μM (FIG. 2A).
(§2) General Static Bacterial Biofilm Inhibition Assay Procedure for A. baumannii, P. aeruginosa, B. bronchiseptica and S. aureus: Biofilm inhibition assays were performed by taking an overnight culture of bacterial strain and subculturing it at an OD600 of 0.01 into the necessary growth liquid medium (LB for A. baumannii, LBNS for P. aeruginosa, Stainer Scholte medium that was supplemented with […] of 100× nutrient complex for B. bronchiseptica and TSBG for S. aureus) for the strain. The compound being tested was then added at a predetermined concentration and then aliquoted (100 μL) into the wells of a 96-well PVC microtiter plate (Wells not used for samples are filled with 100 μL of de-ionized water). Plates were then wrapped in GLAD Press n′ Seal® and incubated under stationary conditions at 37° C. After 24 hours, the media was discarded from the wells and the plates were washed thoroughly with tap water. Plates were then stained with 100 μL of 0.1% solution of crystal violet (CV) and then incubated at an ambient temperature for 30 minutes. Sample plates were then washed with tap water again and the remaining stain was solubilized with 200 μl, of 95% ethanol. Biofilm inhibition was quantitated by measuring the OD540 for each well by transferring 125 μL of the solubilized CV stain into a polystyrene microtiter dish for analysis.

MRSA = experiment: Biofilm inhibition at 100 μM, MRSA; assay type: cell-based; conditions: Staphylococcus aureus, biofilm inhibition, 100 μM, read-out: MRSA % Inhibition
Procedure: Procedure to Determine the Inhibitory Effect of Test Compounds on E. faecium, MRSA, S. epidermidis, PAO1, PA14, E. Coli and MDRAB Biofilm Formation: Inhibition assays were performed by taking an overnight culture of bacterial strain and subculturing it at an OD600 of 0.01 into the necessary media (brain heart infusion for E. faecium, tryptic soy broth with a 0.5% glucose supplement (TSBG) for MRSA, Luria-Bertani (LB) media for MDRAB, Luria-Bertani media without NaCl (LBNS) for PAO1 and PA14, Luria-Bertani (LB) media for E. coli and tryptic soy broth with a 0.5% glucose supplement and a 3.0% NaCl supplement (TGN) for S. epidermidis. Stock solutions of predetermined concentrations of the test compound were then made in the necessary media. These stock solutions were aliquoted (100 μL) into the wells of the 96-well PVC microtiter plate. Sample plates were then wrapped in GLAD Press n′ Seal® followed by an incubation under stationary conditions for 24 h at 37° C. After incubation, the media was discarded from the wells and the plates were washed thoroughly with water. Plates were then stained with 100 μL of 0.1% solution of crystal violet (CV) and then incubated at ambient temperature for 30 min. Plates were washed with water again and the remaining stain was solubilized with 200 μL of 95% ethanol. A sample of 125 μL of solubilized CV stain from each well was transferred to the corresponding wells of a polystyrene microtiter dish. Biofilm inhibition was quantitated by measuring the OD540 of each well in which a negative control lane wherein no biofilm was formed served as a background and was subtracted out.
Biofilm inhibition has been tested for the following compounds, each of which was tested at a concentration of 100 μM.

[1] = system: pre-formed S. aureus biofilms; experiment: Static bacterial biofilm dispersion assay, S. aureus; assay type: cell-based; conditions: Staphylococcus aureus
Procedure: (§3) General Static Bacterial Biofilm Dispersion Assay Procedure for A. baumannii, P. aeruginosa and S. aureus: Dispersion assays were performed by taking an overnight culture of bacterial strain and subculturing it at an OD600 of 0.01 into the necessary growth liquid medium. The resulting bacterial suspension was aliquoted (100 μL) into the wells of a 96-well PVC microtiter plate. Plates were then wrapped in GLAD Press n′ Seal® followed by an incubation under stationary conditions at an ambient temperature. After 24 hours, the media was discarded from the wells and the plates were washed thoroughly with tap water. Predetermined concentrations of the compound were then made in the same medium used to initially grow the biofilms and then aliquoted (100 μL) into the wells of the 96-well PVC microtiter plate with the established biofilms. Plates were then wrapped in GLAD Press n′ Seal® and incubated under stationary conditions at 37° C. After 24 hours, the media was discarded from the wells and the plates were washed thoroughly with tap water. Plates were then stained with 100 μL of 0.1% solution of crystal violet (CV) and then incubated at room temperature for 30 minutes. Plates were then washed with tap water again and the remaining stain was solubilized with 200 μL of 95% ethanol. Biofilm dispersion was quantitated by measuring the OD540 for each well by transferring 125 μL of the solubilized CV stain into a polystyrene microtiter dish for analysis.

[2] = system: pre-formed P. aeruginosa PAO1 biofilms; experiment: Static bacterial biofilm dispersion assay, PAO1; assay type: cell-based; conditions: Pseudomonas aeruginosa
Procedure: as §3

[3] = system: Staphylococcus aureus biofilm; experiment: Static bacterial biofilm inhibition assay (crystal violet), S. aureus; assay type: cell-based
Procedure: as §2

[4] = system: pre-formed A. baumannii biofilms; experiment: Static bacterial biofilm dispersion assay, A. baumannii; assay type: cell-based; conditions: Acinetobacter baumannii
Procedure: as §3

[5] = system: P. aeruginosa PA14 biofilms; experiment: Static bacterial biofilm inhibition assay (crystal violet), PA14; assay type: cell-based; conditions: Pseudomonas aeruginosa
Procedure: as §1, §2

[6] = system: B. bronchiseptica Rb50 biofilms; experiment: Static bacterial biofilm inhibition assay (crystal violet), Rb50; assay type: cell-based; conditions: Bordetella bronchiseptica, RB50BIOFILMS
Procedure: as §1, §2

[7] = system: A. baumannii, PAO1, PA14, Rb50, S. aureus (each bacterial strain); experiment: Planktonic growth curves and colony counts, each bacterial strain; assay type: cell-based; conditions: each bacterial strain grown in the presence of compound
Procedure: The OD600 was recorded at 1, 3, 4, 5, 6 and 24 hours.
General Colony Count Procedure for A. baumannii, P. aeruginosa, B. bronchiseptica and S. aeureus: Colony counts were performed by incubating either bacterial strain in the presence and absence of the test compound at 37° C. in culture tubes until the sample with the absence of the test compound reached an OD600 of 0.40 from a starting OD600 of 0.01. This typically took three to four hours. Once the OD600 of approximately 0.40 was observed, 100 μL were taken from each culture tube from which serial dilutions were made. Then, 10 μL were removed from each serial dilution and plated out on a square gridded petri-dish followed by 16 hours of incubation at 37° C. period (48 hours for B. bronchiseptica) to grow countable colonies. Viable bacteria were quantified through employment of the track-dilution method (Jett et al., Bio Techniques. 1997, 23, 648-650).

[8] = system: pre-formed P. aeruginosa PA14 biofilms; experiment: Static bacterial biofilm dispersion assay, PA14; assay type: cell-based; conditions: Pseudomonas aeruginosa
Procedure: as §3

[9] = system: P. aeruginosa PAO1 biofilms; experiment: Static bacterial biofilm inhibition assay (crystal violet), PAO1; assay type: cell-based; conditions: Pseudomonas aeruginosa
Procedure: as §1, §2

[10] = system: pre-formed B. bronchiseptica Rb50 biofilms; experiment: Static bacterial biofilm dispersion assay, Rb50; assay type: cell-based; conditions: Bordetella bronchiseptica
Procedure: as §3
General Static Bacterial Biofilm Dispersion Assay Procedure for B. bronchiseptica: This procedure is identical to the general dispersion procedure described above except that initial biofilm formation in the absence of the test compound was carried out at 37° C.

## Nc1ncc[nH]1 [2-Aminomidazole, reference compound]
A. baumannii biofilms; up to 800 μM (highest concentration tested)
  activity against A. baumannii biofilm development: devoid of activity

## Nc1nc(CCCc2cn(CC(=O)N3CCCC3)nn2)c[nH]1 [2-{4-[3-(2-amino-1H-imidazol-4-yl)-propyl]-[1,2,3]triazol-1-yl}-1-pyrrolidin-1-yl-ethanone hydrochloride]
MRSA
  inhibition at 100 µM: 35.4 ± 5%

## Nc1nc(CCCc2cn(CC(=O)NCCCc3ccccc3)nn2)c[nH]1 [2-{4-[3-(2-amino-1H-imidazol-4-yl)-propyl]-[1,2,3]triazol-1-yl}-N-(3-phenyl-propyl)-acetamide hydrochloride]
MRSA
  inhibition at 100 µM: 64.8 ± 2%

## COc1ccc(CNC(=O)Cn2cc(CCCc3c[nH]c(N)n3)nn2)cc1 [2-{4-[3-(2-amino-1H-imidazol-4-yl)-propyl]-[1,2,3]triazol-1-yl}-N-(4-methoxy-benzyl)-acetamide hydrochloride]
MRSA
  inhibition at 100 µM: 71 ± 3%

## COc1ccc(NC(=O)Cn2cc(CCCc3c[nH]c(N)n3)nn2)cc1 [2-{4-[3-(2-amino-1H-imidazol-4-yl)-propyl]-[1,2,3]triazol-1-yl}-N-(4-methoxy-phenyl)-acetamide hydrochloride]
MRSA
  inhibition at 100 µM: 41.1 ± 2%

## COc1ccc(CCNC(=O)Cn2cc(CCCc3c[nH]c(N)n3)nn2)cc1 [2-{4-[3-(2-amino-1H-imidazol-4-yl)-propyl]-[1,2,3]triazol-1-yl}-N-[2-(4-methoxy-phenyl)-ethyl]-acetamide hydrochloride]
MRSA
  inhibition at 100 µM: 18.3 ± 5%

## Nc1nc(CCCc2cn(CC(=O)NCc3ccccc3)nn2)c[nH]1 [2-{4-[3-(2-amino-1H-imidazol-4-yl)-propyl]-[1,2,3]triazol-1-yl}-N-benzyl-acetamide hydrochloride]
MRSA
  inhibition at 100 µM: 58.1 ± 2%

## Nc1nc(CCCc2cn(CC(=O)NC3CCCCC3)nn2)c[nH]1 [2-{4-[3-(2-amino-1H-imidazol-4-yl)-propyl]-[1,2,3]triazol-1-yl}-N-cyclohexyl-acetamide hydrochloride]
MRSA
  inhibition at 100 µM: 40.5 ± 4%

## Nc1nc(CCCc2cn(CC(=O)NC3CCCC3)nn2)c[nH]1 [2-{4-[3-(2-amino-1H-imidazol-4-yl)-propyl]-[1,2,3]triazol-1-yl}-N-cyclopentyl-acetamide hydrochloride]
MRSA
  inhibition at 100 µM: 64 ± 4%

## CCCCCCNC(=O)Cn1cc(CCCc2c[nH]c(N)n2)nn1 [2-{4-[3-(2-amino-1H-imidazol-4-yl)-propyl]-[1,2,3]triazol-1-yl}-N-hexyl-acetamide hydrochloride]
MRSA
  inhibition at 100 µM: 83.1 ± 16%

## CC(C)NC(=O)Cn1cc(CCCc2c[nH]c(N)n2)nn1 [2-{4-[3-(2-amino-1H-imidazol-4-yl)-propyl]-[1,2,3]triazol-1-yl}-N-isopropyl-acetamide hydrochloride]
MRSA
  inhibition at 100 µM: 36.4 ± 3%

## Nc1nc(CCCc2cn(CC(=O)Nc3ccccc3)nn2)c[nH]1 [2-{4-[3-(2-amino-1H-imidazol-4-yl)-propyl]-[1,2,3]triazol-1-yl}-N-phenyl-acetamide hydrochloride]
MRSA
  inhibition at 100 µM: 41.9 ± 2%

## CC(C)(C)NC(=O)Cn1cc(CCCc2c[nH]c(N)n2)nn1 [2-{4-[3-(2-amino-1H-imidazol-4-yl)-propyl]-[1,2,3]triazol-1-yl}-N-tert-butyl-acetamide hydrochloride]
MRSA
  inhibition at 100 µM: 28.2 ± 15%

## C/C(=C\c1ccccc1)Cn1cc(CCc2c[nH]c(N)n2)nn1 [Compound 7, 4-{2-[1-(2-Methyl-3-phenyl-allyl)-1H-[1,2,3]triazol-4-yl]-ethyl}-1H-imidazol-2-ylamine hydrochloride]
A. baumannii biofilms; Acinetobacter baumannii
  IC50: 220 µM

## C/C(=C\c1ccccc1)Cn1cc(Cc2c[nH]c(N)n2)nn1 [Compound 8, 4-[1-(2-Methyl-3-phenyl-allyl)-1H [1,2,3]triazol-4-ylmethyl]-1H-imidazol-2-ylamine hydrochloride]
A. baumannii biofilms; (highest concentration tested)
  inhibition of A. baumannii biofilm development: < 50%

## C/C(=C\c1ccccc1)Cn1cc(CCCn2ccnn2)nn1 [Compound 9, 1-(2-Methyl-3-phenyl-allyl)-4-(3-[1,2,3]triazol-1-yl-propyl)-1H-[1,2,3]triazole]
A. baumannii biofilms; Acinetobacter baumannii, at the highest concentration studied (800 μM), read-out: inhibition of A. baumannii biofilm development
  inhibition at 800 µM: < 30%

## C/C(=C\c1ccccc1)Cn1cc(CCCCc2cnc(N)[nH]2)nn1 [Compound 10, 4-{4-[1-(2-Methyl-3-phenyl-allyl)-1H-[1,2,3]triazol-4-yl]-butyl}-1H-imidazol-2-ylamine]
[1]
  EC50: 16 µM
[2]
  EC50: 81 µM
[3]
  IC50: 7000 nM
[4]
  EC50: 210 µM
[5]; P. aeruginosa PA14
  IC50: 4000 nM
A. baumannii biofilms; Acinetobacter baumannii
  IC50: 2.8 µM
[6]
  IC50: 23 µM
[7]
  bactericidal / microbicidal activity (colony counts and growth curves): not due to bactericidal activity
[8]
  EC50: 35 µM
[9]
  IC50: 15 µM
[10]
  EC50: 59 µM

## C/C(=C\c1ccccc1)Cn1cc(CCCCCc2c[nH]c(N)n2)nn1 [Compound 11, 4-{5-[1-(2-Methyl-3-phenyl-allyl)-1H-[1,2,3]triazol-4-yl]-pentyl}-1H-imidazol-2-ylamine hydrochloride]
[1]
  EC50: 2.6 µM
[2]
  EC50: 11 µM
[3]; S. aureus, value in nM
  IC50: 810 nM
[4]
  EC50: 120 µM
[5]; PA14, value in nM
  IC50: 530 nM
A. baumannii biofilms; Acinetobacter baumannii
  IC50: 0.98 µM
[6]
  IC50: 9.5 µM
[7]
  bactericidal / microbicidal activity (colony counts and growth curves): not due to microbicidal activity
[8]
  EC50: 22 µM
[9]
  IC50: 5.6 µM
[10]
  EC50: 55 µM

Source: patent publication US8367713B2, “Inhibition and dispersion of bacterial biofilms with imidazole-triazole derivatives” (North Carolina State University, priority 2008, dated 2013)
